Reference: publication PMC6934184, “Selective DNA-PKcs inhibition extends the therapeutic index of localized radiotherapy and chemotherapy” (The Journal of Clinical Investigation, 2019)

Target: T1, AURKC (Aurora C) (Homo sapiens, UniProt Q9UQB9)
T1 construct: purchased Thermo Fisher Scientific (Life Technologies) SelectScreen
Assay: SelectScreen Z'LYTE
Assay type: biochemical
How it was run: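 Percent values come from Thermo SelectScreen profiling of NU5455, combining activity and binding assays. CSF1R was run in Z'LYTE format at Km app ATP, and CAMK1 in Adapta format with ATP listed at 10.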

T1 sequence (Q9UQB9 whole entry): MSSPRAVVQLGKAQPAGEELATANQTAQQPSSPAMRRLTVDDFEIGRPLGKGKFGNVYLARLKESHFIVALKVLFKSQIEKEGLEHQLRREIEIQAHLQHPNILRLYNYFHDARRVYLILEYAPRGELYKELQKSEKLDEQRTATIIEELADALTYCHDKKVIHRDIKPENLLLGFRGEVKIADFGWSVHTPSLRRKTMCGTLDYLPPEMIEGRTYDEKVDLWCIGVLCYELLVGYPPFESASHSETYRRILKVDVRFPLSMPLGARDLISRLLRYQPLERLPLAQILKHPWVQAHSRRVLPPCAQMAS

For `CN(C(=O)CN1CCOCC1)c1ccc2sc3c(-c4cccc5c(=O)cc(N6CC7CCC(C6)O7)oc45)cccc3c2c1` [NU5455], the inhibition at 1 µM was -5.4%.
